Test results as given in US20150218212A1, “FLUORINATED EPOXYKETONE-BASED TETRAPEPTIDE COMPOUNDS AND USES THEREOF AS PROTEASOME INHIBITORS” (FLUORINOV PHARMA INC., priority 2012, published 2015).

Experiments:
Type in all cases: cell-based, human
COLO 205 = test: NCI screening panel, COLO 205 (Colon Cancer)
Protocol: (§1) Representative compounds of Formula I were screened using the National Cancer Institute (NCI) screening panel, which consists of a panel of human tumor cell lines, representing leukemia, melanoma, and cancers of the lung, colon, ovary, breast, prostate and renal system.
(§2) After 24 h, two plates of each cell line are fixed in situ with TCA, to represent a measurement of the cell population for each cell line at the time of drug addition (Tz). Experimental drugs are solubilised in dimethyl sulfoxide at 400-fold the desired final maximum test concentration and stored frozen prior to use. At the time of drug addition, an aliquot of frozen concentrate is thawed and diluted to twice the desired final maximum test concentration with complete medium containing 50 μg/mL gentamicin. Additional four, 10-fold or ½ log serial dilutions are made to provide a total of five drug concentrations plus control. Aliquots of 100 μl of these different drug dilutions are added to the appropriate microtiter wells already containing 100 μl of medium, resulting in the required final drug concentrations.
(§3) Following drug addition, the plates are incubated for an additional 48 h at 37° C., 5% CO2, 95% air, and 100% relative humidity. For adherent cells, the assay is terminated by the addition of cold TCA (trichloroacetic acid). Cells are fixed in situ by the gentle addition of 50 μl of cold 50% (w/v) TCA (final concentration, 10% TCA) and incubated for 60 minutes at 4° C. The supernatant is discarded, and the plates are washed five times with tap water and air dried. Sulforhodamine B (SRB) solution (100 μl) at 0.4% (w/v) in 1% acetic acid is added to each well, and plates are incubated for 10 minutes at room temperature. After staining, unbound dye is removed by washing five times with 1% acetic acid and the plates are air dried. Bound stain is subsequently solubilised with 10 mM trizma base, and the absorbance is read on an automated plate reader at a wavelength of 515 nm. For suspension cells, the methodology is the same except that the assay is terminated by fixing settled cells at the bottom of the wells by gently adding 50 μl of 80% TCA (final concentration, 16% TCA). Using the seven absorbance measurements [time zero, (Tz), control growth, (C), and test growth in the presence of drug at the five concentration levels (Ti)], the percentage growth is calculated at each of the drug concentrations levels. Percentage growth inhibition is calculated as: [(Ti−Tz)/(C−Tz)]×100 for concentrations for which Ti>/=Tz and [(Ti−Tz)/Tz]×100 for concentrations for which Ti<Tz.
(§4) Three dose response parameters are calculated for each experimental agent. Growth inhibition of 50% (GI50) is calculated from [(Ti−Tz)/(C−Tz)]×100=50, which is the drug concentration resulting in a 50% reduction in the net protein increase (as measured by SRB staining) in control cells during the drug incubation. The drug concentration resulting in total growth inhibition (TGI) is calculated from Ti=Tz. The LC50 (concentration of drug resulting in a 50% reduction in the measured protein at the end of the drug treatment as compared to that at the beginning) indicating a net loss of cells following treatment is calculated from [(Ti−Tz)/Tz]×100=−50. Values are calculated for each of these three parameters if the level of activity is reached. However, if the effect is not reached or is exceeded, the value for that parameter is expressed as greater or less than the maximum or minimum concentration tested.

SNB-19 = test: NCI screening panel, SNB-19 (CNS Cancer)
Protocol: as §1, §2, §3, §4

NCI-H226 = test: NCI screening panel, NCI-H226 (Non-Small Cell Lung Cancer)
Protocol: as §1, §2, §3, §4

NCI-H460 = test: NCI screening panel, NCI-H460 (Non-Small Cell Lung Cancer)
Protocol: as §1, §2, §3, §4

NCI-H23 = test: NCI screening panel, NCI-H23 (Non-Small Cell Lung Cancer)
Protocol: as §1, §2, §3, §4

HCC-2998 = test: NCI screening panel, HCC-2998 (Colon Cancer)
Protocol: as §1, §2, §3, §4

MCF7 = test: NCI screening panel, MCF7 (Breast Cancer)
Protocol: as §1, §2, §3, §4

CAKI-1 = test: NCI screening panel, CAKI-1 (Renal Cancer)
Protocol: as §1, §2, §3, §4

DU-145 = test: NCI screening panel, DU-145 (Prostate Cancer)
Protocol: as §1, §2, §3, §4

MDA-MB-468 = test: NCI screening panel, MDA-MB-468 (Breast Cancer)
Protocol: as §1, §2, §3, §4

SK-MEL-28 = test: NCI screening panel, SK-MEL-28 (Melanoma)
Protocol: as §1, §2, §3, §4

HT29 = test: NCI screening panel, HT29 (Colon Cancer)
Protocol: as §1, §2, §3, §4

CC(C)C[C@H](NC(=O)[C@H](COC(F)F)NC(=O)CN1CCOCC1)C(=O)N[C@@H](COC(F)F)C(=O)N[C@@H](CC(C)C)C(=O)[C@@]1(C)CO1 [Example 1, (2S)—N-[(1S)-1-(difluoromethoxymethyl)-2-[[(1S)-3-methyl-1-[(2R)-2-methyloxirane-2-carbonyl]butyl]amino]-2-oxo-ethyl]-2-[[(2S)-3-(difluoromethoxy)-2-[(2-morpholinoacetyl)amino]propanoyl]amino]-4-methyl-pentanamide]
Log10GI50 (COLO 205): −7.39
Log10LC50 (COLO 205): −5.59
Log10TGI50 (COLO 205): −6.72
Log10GI50 (SNB-19): −7.22
Log10LC50 (SNB-19): >−4.00
Log10TGI50 (SNB-19): >−4.00
Log10GI50 (NCI-H226): −7.73
Log10LC50 (NCI-H226): −7.07
Log10TGI50 (NCI-H226): −7.40
Log10GI50 (NCI-H460): −7.30
Log10LC50 (NCI-H460): >−4.00
Log10TGI50 (NCI-H460): −6.39
Log10GI50 (NCI-H23): −7.56
Log10LC50 (NCI-H23): >−4.00
Log10TGI50 (NCI-H23): −6.68
Log10GI50 (HCC-2998): −7.74
Log10LC50 (HCC-2998): −7.16
Log10TGI50 (HCC-2998): −7.45
Log10GI50 (MCF7): <−8.00
Log10LC50 (MCF7): >−4.00
Log10TGI50 (MCF7): −5.18
Log10GI50 (CAKI-1): −6.29
Log10LC50 (CAKI-1): >−4.00
Log10TGI50 (CAKI-1): −5.24
Log10GI50 (DU-145): −7.25
Log10LC50 (DU-145): >−4.00
Log10TGI50 (DU-145): −4.66
Log10GI50 (MDA-MB-468): −7.55
Log10LC50 (MDA-MB-468): >−4.00
Log10TGI50 (MDA-MB-468): −6.89
Log10GI50 (SK-MEL-28): −7.56
Log10LC50 (SK-MEL-28): >−4.00
Log10TGI50 (SK-MEL-28): −6.97
Log10GI50 (HT29): −7.77
Log10LC50 (HT29): >−4.00
Log10TGI50 (HT29): −4.15
